Data from the supplement of paper PMC8671470.

Experiments:
BV-173 = assay: cell viability (% survival relative to DMSO control); higher = less cytotoxic; conditions: 72 h
Procedure: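 8x8 drug-combination matrices (0–5000 nM; rosiglitazone and lestaurtinib 0–1000 nM) were run in BV-173 cells for 72 h with CellTiter-Glo read-out. Survival is normalised to DMSO and 10 µM bortezomib and clipped at 100%.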

Mono-Mac-6 = assay: as above; conditions: 72 h
Procedure: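 8x8 drug-combination matrices (0–5000 nM; rosiglitazone and lestaurtinib 0–1000 nM) were run in Mono-Mac-6 cells for 72 h with CellTiter-Glo read-out. Survival is normalised to DMSO and 10 µM bortezomib and clipped at 100%.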

CN(C)C(=O)n1nnnc1Cc1ccc(-c2ccccc2)cc1 + CCOC(=O)N1c2ccc(C(F)(F)F)cc2[C@@H](N(Cc2cc(C(F)(F)F)cc(C(F)(F)F)c2)C(=O)OC)C[C@H]1CC [Torcetrapib]
cell viability [%]
Conditions	drug2 concentration 5 nM	drug2 concentration 10 nM	drug2 concentration 50 nM	drug2 concentration 100 nM	drug2 concentration 500 nM	drug2 concentration 1000 nM	drug2 concentration 5000 nM
BV-173, drug1 concentration 100 nM	–	–	–	87.3	83.8	94.5	69.6
BV-173, drug1 concentration 500 nM	86.7	64.3	61	> 100	95.5	> 100	77.6
BV-173, drug1 concentration 1000 nM	61	67	53.7	45.6	86	71.3	24.2
BV-173, drug1 concentration 5000 nM	-1.29	-0.12	1.13	-0.25	0.45	1.28	0
Mono-Mac-6, drug1 concentration 5 nM	> 100	93	> 100	89	91.9	99.7	90.6
Mono-Mac-6, drug1 concentration 10 nM	> 100	86.3	89.7	> 100	> 100	86.5	88.3
Mono-Mac-6, drug1 concentration 50 nM	> 100	> 100	93.7	> 100	> 100	98.8	> 100
Mono-Mac-6, drug1 concentration 100 nM	> 100	92	95.9	> 100	97	> 100	93.4
Mono-Mac-6, drug1 concentration 500 nM	82.7	69	> 100	> 100	> 100	> 100	> 100
Mono-Mac-6, drug1 concentration 1000 nM	86.1	90.7	58.1	96.6	> 100	> 100	74.2
Mono-Mac-6, drug1 concentration 5000 nM	-0.88	0.43	1.57	0.14	0.52	2.08	0
